Assay results reported in patent US8952024B2, “Herbicidal pyrimidone derivatives” (E I du Pont de Nemours and Company, priority 2009, dated 2015).

What was measured:
Assay in all cases: Test B pre-/postemergence plant response
Assay type in all cases: in vivo
[1] = test system: wild oat (Avena fatua); conditions: for Oat, Wild plant response rating (0 to 100 scale): 0 is no effect; for Oat, Wild plant response rating: 0 to 100 scale
Outline: (§1)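 Plants treated either at seeding (loam/sand soil) or postemergence at 2 to 18 cm height, using a surfactant-containing non-phytotoxic solvent formulation. Evaluation was visual after 13 to 15 days, 0 to 100 scale relative to controls.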

[2] = test system: nightshade (eastern black nightshade, Solanum ptycanthum); conditions: Preemergence; for Nightshade plant response rating: 250 g ai/ha, 0 to 100 scale
Outline: as §1

[3] = test system: sunflower (common oilseed sunflower, Helianthus annuus); conditions: Preemergence; for Sunflower plant response rating: 250 g ai/ha, 0 to 100 scale
Outline: as §1

[4] = test system: galium (catchweed bedstraw, Galium aparine); conditions: Preemergence; for Galium plant response rating: 250 g ai/ha, 0 to 100 scale
Outline: as §1

[5] = 31 g ai/ha, postemergence, scale 0 to 100, 0 is no effect, 100 is complete control
[6] = 62 g ai/ha, postemergence, 100 is complete control, 13 to 15 days
[7] = Postemergence, 250 g ai/ha, scale 0 to 100 (0 no effect, 100 complete control)
[8] = Preemergence, 31 g ai/ha, scale 0 to 100 (0 no effect, 100 complete control)
[9] = Preemergence, 62 g ai/ha, scale 0 to 100 (0 no effect, 100 complete control)
[10] = Preemergence, 125 g ai/ha, scale 0 to 100, 0 no effect, 100 complete control
[11] = 31 g ai/ha, scale 0 to 100 (0 no effect, 100 complete control)
[12] = 62 g ai/ha, scale 0 to 100 (0 no effect, 100 complete control)
[13] = 125 g ai/ha, scale 0 to 100, 0 no effect, 100 complete control
[14] = Postemergence, 125 g ai/ha, scale 0 to 100 (0 no effect, 100 complete control)

| SMILES | Plant response rating, Oat, Wild [1, 5] | Oat, Wild plant response rating (0 to 100 scale) [1, 6] | Plant response rating, Oat, Wild [1, 7] | Plant response rating, Oat, Wild [1, 8] | Plant response rating, Oat, Wild [1, 9] | Plant response rating, Oat, Wild [1, 10] | Oat, Wild plant response rating ([1]; Preemergence, 250 g ai/ha) | Plant response rating, Nightshade [2, 11] | Plant response rating, Nightshade [2, 12] | Plant response rating, Nightshade [2, 13] | Nightshade plant response rating [2] | Plant response rating, Sunflower [3, 11] | Plant response rating, Sunflower [3, 12] | Plant response rating, Sunflower [3, 13] | Sunflower plant response rating [3] | Plant response rating, Galium [4, 11] | Plant response rating, Galium [4, 12] | Plant response rating, Galium [4, 13] | Galium plant response rating [4] | Plant response rating, Oat, Wild [1, 14] | further results |
| --- | --- | --- | --- | --- | --- | --- | --- | --- | --- | --- | --- | --- | --- | --- | --- | --- | --- | --- | --- | --- | --- |
| CCCn1c(-c2cccs2)ncc(C(=O)C2=C(O)CCCC2=O)c1=O [Compound 77] | 0 | 5 | 5 | 0 | 0 | 0 | 0 | 98 | 98 | 98 | 100 | 60 | 75 | 75 | 85 | 0 | 20 | 85 | 90 |  | Plant response rating, Oat, Wild ([1]; Postemergence, 125 g ai/ha, visual rating after 13 to 15 days, scale 0 (no effect) to 100 (complete control)): 5 |
| COCCn1c(-c2cc(F)cc(F)c2)ncc(C(=O)C2=C(O)CCCC2=O)c1=O [Compound 119] | 50 | 60 | 95 | 0 | 45 | 50 | 80 | 90 | 98 | 98 | 100 | 40 | 60 | 70 | 85 | 65 | 85 | 90 | 100 | 95 |  |
| COCCCn1c(-c2cc(F)cc(F)c2)ncc(C(=O)C2=C(O)CCCC2=O)c1=O [Compound 120] | 50 | 80 | 95 | 0 | 10 | 65 | 65 | 90 | 95 | 95 | 98 | 45 |  | 85 | 95 | 80 | 90 | 95 | 98 | 80 |  |
| COc1ccc(-n2c(-c3ccccc3)ncc(C(=O)C3=C(O)CCCC3=O)c2=O)cc1OC [Compound 218] |  |  |  | 0 | 0 | 0 | 0 | 98 | 98 | 100 | 100 | 75 | 80 | 90 | 95 | 60 | 80 | 95 | 100 |  | Plant response rating, Oat, Wild ([1]; Postemergence, 31 g ai/ha, 0 to 100 scale (0 no effect, 100 complete control)): 40; Plant response rating, Oat, Wild ([1]; Postemergence, 62 g ai/ha, scale 0 to 100 (0 no effect, 100 complete control)): 45; Plant response rating, Oat, Wild ([1]; Postemergence, 250 g ai/ha, scale 0 to 100 (0 no effect, 100 complete control), 13 to 15 days): 60 |
